# Measured values reported in US20100137313A1 (ASTRAZENECA AB, priority 2008, published 2010).
# Target: S. pneumoniae Topoisomerase IV ATPase (ParE) (Streptococcus pneumoniae serotype 4, UniProt Q59961)
# Assay: S. pneumoniae Topoisomerase IV ATPase inhibition
# Format: biochemical
# Conditions: values marked * are an average of two or more data points, read-out: % Inh (13 μM) of S. pneumoniae Topoisomerase IV ATPase
# Outline: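 Phosphate release by ParE ATPase from S. pneumoniae read colorimetrically (malachite green, 650 nm), enzyme 1.25 nM, ATP 160 μM, salmon sperm DNA present, buffer 20 mM Tris pH 8.0 with 8 mM MgCl2. IC50 over 10 compound concentrations, EDTA (20 μM) and DMSO controls defining inhibition range.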
# Sequence of S. pneumoniae Topoisomerase IV ATPase (ParE) (Q59961 whole entry): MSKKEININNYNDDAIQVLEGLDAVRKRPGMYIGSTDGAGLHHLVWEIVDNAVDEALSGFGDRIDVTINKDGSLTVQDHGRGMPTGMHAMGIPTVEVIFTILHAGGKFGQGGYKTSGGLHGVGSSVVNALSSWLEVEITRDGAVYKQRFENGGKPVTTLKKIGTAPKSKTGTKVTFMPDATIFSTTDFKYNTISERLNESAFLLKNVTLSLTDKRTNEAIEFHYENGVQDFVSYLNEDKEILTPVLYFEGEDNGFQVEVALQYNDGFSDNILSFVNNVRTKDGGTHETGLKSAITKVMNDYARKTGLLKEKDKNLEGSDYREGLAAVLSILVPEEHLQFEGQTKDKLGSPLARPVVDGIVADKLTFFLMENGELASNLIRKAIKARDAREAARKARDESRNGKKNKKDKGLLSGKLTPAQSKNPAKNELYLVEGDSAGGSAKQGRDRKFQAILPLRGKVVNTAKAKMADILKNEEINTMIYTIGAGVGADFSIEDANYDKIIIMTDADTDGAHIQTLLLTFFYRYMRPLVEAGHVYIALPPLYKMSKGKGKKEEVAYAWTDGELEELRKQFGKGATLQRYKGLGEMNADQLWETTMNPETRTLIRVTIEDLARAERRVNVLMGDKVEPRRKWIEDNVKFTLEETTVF
row,SMILES,inhibition at 13 µM
1,"NC(=O)c1cncc(-c2cnc(Nc3ccc(F)c(Cl)c3)nc2-n2ccc(-c3ccsc3)n2)c1 [Example 540, 5-{2-[(3-chloro-4-fluorophenyl)amino]-4-[3-(thiophen-3-yl)-1H-pyrazol-1-yl]pyrimidin-5-yl}pyridine-3-carboxamide]",100%
2,"COc1ncc(-c2cnc(Nc3cccc(C(N)=O)c3)nc2-n2nc(C(F)(F)F)cc2C)cc1C(=O)O [Example 723, 5-{2-[(3-carbamoylphenyl)amino]-4-[5-methyl-3-(trifluoromethyl)-1H-pyrazol-1-yl]pyrimidin-5-yl}-2-methoxypyridine-3-carboxylic acid]",94%
3,"CN(C)CCCNc1nc(Nc2ccc(F)c(Cl)c2)ncc1-c1cccc([N+](=O)[O-])c1 [Example 14, N^2-(3-chloro-4-fluorophenyl)-N^4-[3-(dimethylamino)propyl]-5-(3-nitrophenyl) pyrimidin-2,4-diamine]",100%
4,"CCOC(=O)/C=C/c1cccc(-c2cnc(Nc3ccc(F)c(Cl)c3)nc2NCCCOC)c1 [Example 167, (E)-ethyl 3-(3-(2-(3-chloro-4-fluorophenylamino)-4-(3-methoxypropylamino)pyrimidin-5-yl)phenyl)acrylate]",31.1%
5,"Fc1ccc(Nc2ncc(-c3nc4ccccc4[nH]3)c(N3CCOCC3)n2)cc1Cl [Example 497, 5-(1H-benzimidazol-2-yl)-N-(3-chloro-4-fluorophenyl)-4-(morpholin-4-yl)pyrimidin-2-amine]",61%
6,"COc1cc(F)cc(Nc2ncc(-c3cc(C(=O)O)c(=O)n(C)c3)c(-n3nc(C(F)(F)F)cc3C)n2)c1 [Example 921, 5-(2-(3-fluoro-5-methoxyphenylamino)-4-(5-methyl-3-(trifluoromethyl)-1H-pyrazol-1-yl)pyrimidin-5-yl)-1-methyl-2-oxo-1,2-dihydropyridine-3-carboxylic acid]",99%
7,"COc1ncc(-c2cnc(Nc3ccc(F)c(Cl)c3)nc2-n2ccc(C(F)(F)F)n2)cc1C(=O)NS(C)(=O)=O [Example 1024, 5-(2-(3-Chloro-4-fluorophenylamino)-4-(3-(trifluoromethyl)-1H-pyrazol-1-yl)pyrimidin-5-yl)-2-methoxy-N-(methylsulfonyl)nicotinamide]",100%
8,"CCOC(=O)c1cn(CCOC)c2ccc(-c3cnc(Nc4ccc(F)c(Cl)c4)nc3N3CCOCC3)cc2c1=O [Example 175, ethyl 6-(2-(3-chloro-4-fluorophenylamino)-4-morpholinopyrimidin-5-yl)-1-(2-methoxyethyl)-4-oxo-1,4-dihydroquinoline-3-carboxylate]",80%
9,"CN(CC(=O)O)c1cccc(-c2cnc(Nc3ccc(F)c(Cl)c3)nc2-n2ccc(C(F)(F)F)n2)c1 [Example 598, N-(3-{2-[(3-chloro-4-fluorophenyl)amino]-4-[3-(trifluoromethyl)-1H-pyrazol-1-yl]pyrimidin-5-yl}phenyl)-N-methylglycine]",82%
10,"CCOC(=O)c1cncc(-c2cnc(Nc3ccc(F)c(Cl)c3)nc2NCc2ccccn2)c1 [Example 95, 5-{2-(3-Chloro-4-fluoro-phenylamino)-4-[(pyridin-2-ylmethyl)-amino]-pyrimidin-5-yl}-nicotinic acid ethyl ester]",-0.48%
11,"CCOC(=O)c1cncc(-c2cnc(Nc3ccc(F)c(Cl)c3)nc2N2CCCC2C)c1 (centres unmarked) [Example 124, ethyl 5-[2-[(3-chloro-4-fluorophenyl)amino]-4-(2-methylpyrrolidin-1-yl)pyrimidin-5-yl]pyridine-3-carboxylate]",31.3%
12,"CN(C)CCCNc1nc(Nc2cc(Cl)cc(Cl)c2)ncc1-c1ccc(C(=O)O)s1 [Example 339, 5-(2-(3,5-dichloro-phenylamino)-4-(3-(dimethylamino)propylamino)pyrimidin-5-yl) thiophene-2-carboxylic acid]",84.3%
13,"COCCCNc1nc(Nc2ccc(F)c(Cl)c2)ncc1-c1nc(-c2ccccn2)c(C(=O)O)s1 [Example 511, 2-{2-[(3-chloro-4-fluorophenyl)amino]-4-[(3-methoxypropyl)amino]pyrimidin-5-yl}-4-(pyridin-2-yl)-1,3-thiazole-5-carboxylic acid]",100%
14,"CCNC(=O)c1cccc(-c2cnc(Nc3ccc(F)c(Cl)c3)nc2NCCCN(C)C)c1 [Example 361, 3-(2-(3-chloro-4-fluorophenylamino)-4-(3-(dimethylamino)propylamino)pyrimidin-5-yl)-N-ethylbenzamide]",94.8%
15,"COCCCNc1nc(Nc2ccc(F)c(Cl)c2)ncc1-c1ccc2[nH]c(C(=O)O)cc2c1 [Example 1062, 5-(2-(3-chloro-4-fluorophenylamino)-4-(3-methoxypropylamino)pyrimidin-5-yl)-1H-indole-2-carboxylic acid]",91%
16,"CCOC(=O)c1cncc(-c2cnc(Nc3ccc(F)c(Cl)c3)nc2NCCNC(C)=O)c1 [Example 94, 5-[4-(2-Acetylamino-ethylamino)-2-(3-chloro-4-fluoro-phenylamino)-pyrimidin-5-yl]-nicotinic acid ethyl ester]",77.5%
17,"COCC(COC)Nc1nc(Nc2ccc(F)c(Cl)c2)ncc1-c1cncc(C(=O)O)c1 [Example 283, 5-(2-(3-chloro-4-fluorophenylamino)-4-(1,3-dimethoxypropan-2-ylamino)pyrimidin-5-yl)nicotinic acid]",89.9%
18,"COCCONC(=O)c1cc(-c2cnc(Nc3cc(OC)cc(OC)c3)nc2-n2ccc(C(F)(F)F)n2)cnc1OC [Example 1168, 5-(2-(3,5-dimethoxyphenylamino)-4-(3-(trifluoromethyl)-1H-pyrazol-1-yl)pyrimidin-5-yl)-2-methoxy-N-(2-methoxyethoxy)nicotinamide]",100%
19,"NC(=O)c1cncc(-c2cnc(Nc3ccc(F)c(Cl)c3)nc2-n2cc(-c3ccncn3)cn2)c1 [Example 543, 5-{2-[(3-chloro-4-fluorophenyl)amino]-4-[4-(pyrimidin-4-yl)-1H-pyrazol-1-yl]pyrimidin-5-yl}pyridine-3-carboxamide]",68%
20,"COCCCNc1nc(Nc2ccc(F)c(Cl)c2)ncc1-c1cncc(C(=O)O)c1 [Example 277, 5-(2-(3-chloro-4-fluorophenylamino)-4-(3-methoxypropylamino)-pyrimidin-5-yl)nicotinic acid]",85.9%
21,"COCCCNc1nc(Nc2ccc(F)c(Cl)c2)ncc1-c1ccc(C(C)=O)s1 [Example 179, 1-(5-(2-(3-chloro-4-fluorophenylamino)-4-(3-methoxypropylamino)-pyrimidin-5-yl)thiophen-2-yl)ethanone]",93.9%
22,"O=C(O)c1cncc(-c2cnc(Nc3ccc(F)c(Cl)c3)nc2-n2cc(-c3ccncn3)cn2)c1 [Example 536, 5-{2-[(3-chloro-4-fluorophenyl)amino]-4-[4-(pyrimidin-4-yl)-1H-pyrazol-1-yl]pyrimidin-5-yl}pyridine-3-carboxylic acid]",100%
23,CCOC(=O)c1cncc(-c2cnc(Nc3ccc(F)c(Cl)c3)nc2NCCN(C)C)c1 [Example 93],79.6%
